≈ marks a conversion by molar mass, not a printed value.
Experiments:
RAW 264.7 macrophages = assay: SRB cytotoxicity on RAW 264.7 viability; format: cell-based; details: Mus musculus, RAW264.7, read-out: RAW 264.7 viability IC50 value
Method: (§1) All malignancy cell lines were cultured in high glucose DMEM (Bio Whittaker, Verviers, Belgium) containing 10% FBS, 4-(2-hydroxyethyl)-1-piperazineethanesulfonic acid (HEPES) Buffer (10 mM), L-glutamine (2 mM), gentamicin (50 µg/mL), penicillin (100 U/mL), and streptomycin sulfate ([…]) from Sigma (St. Luis, MO, USA) whereas Sulforhodamine B was from Santa Cruz Biotechnology (Inc. Texas, USA). Surviving cancer cell lines provide numerous advantages; they provide a pure and continuous supply of cells, thus overcoming any ethical barriers concerning human tissue usage, and are cost-effective. For cytotoxicity screening, adherent monolayers of all procured malignancies’ cell lines were examined. Periodontal ligament fibroblasts (PDL) were used to determine selective cytotoxicity.
RAW 264.7 mouse macrophage cell line (ATCC® TIB-71) were cultured in high glucose DMEM supplemented with 10% (FBS), penicillin (100 U/mL), streptomycin (100 µg/mL), and L-glutamate (100 µg/mL) in a 37 °C humidified atmosphere with 95% air and 5% CO2. Confluent macrophages (2 × 10^5/well) were incubated with inflammation-priming lipopolysaccharide (LPS; Sigma, St. Luis, MO, USA) with either indomethacin as the reference agent[39] or treatment compounds at different concentrations (1.563-200 µM). Griess reagent was mixed with aliquots of cell culture media and incubated at R.T. for 10 min. Absorbance at 550 nm was determined using a microplate reader (Spectro Scan 80D UV-VIS spectrophotometer (Sedico Ltd., Nicosia, Cyprus). The nitrite concentration was determined by comparison with a sodium nitrite standard curve. SRB cytotoxicity protocol was performed for evaluation of the effect of the studied test compounds on RAW 264.7 viability.

[1] = test system: Candida albicans ATCC10231; assay: MIC determination, broth microdilution, absorbance 530 nm; format: cell-based; details: ATCC10231, 24 h, read-out: C. albicans MIC value at 50% inhibition
Method: The compounds were tested against Gram-positive bacteria (Staphylococcus aureus ATCC 6538), Gram-negative bacteria (Escherichia coli ATCC 8739) and yeast (Candida albicansATCC10231). […] For bacterial strains, the EUCAST (2025) method was adapted. A few colonies of each bacterial culture previously grown on Mueller-Hinton agar for 24–48 h were suspended in normal saline and adjusted to 0.5 McFarland (1.5 × 10^8 CFU/mL). A 1/10 dilution was prepared in Mueller-Hinton broth (MHB) for the inoculation. In the wells of a 96-well flat-bottom microtiter plate, double serial dilutions of each compound were prepared in MHB. Each well was inoculated with the bacteria to achieve ca. 5 × 10^5 CFU/mL, and the plates were incubated at 37 °C overnight. Positive control (bacteria in culture medium only) and negative control (culture medium) were prepared. Each compound was tested in duplicate. After incubation, the plates were inspected visually for growth inhibition. To test the antimicrobial activity of DMSO, double serial dilutions of DMSO in broth medium were prepared and processed as the samples, but without the addition of the compounds. The antibacterial drug ciprofloxacin was used as a reference for comparison.
For Candida albicans, the same procedure applied to bacteria was used, except after inoculation, the plates were incubated at 35 °C for 24 h, and after incubation, the absorbance was measured at 530 nm using a plate reader. […] The absorbance of the wells was corrected by subtracting the absorbance of the blank. […] The antifungal drug fluconazole was used as a reference for comparison.

[2] = test system: MDA-MB-453 invasive mammary malignancy; assay: SRB antiproliferative assay; format: cell-based, human; details: 72 h incubations; 3.125-200µM range; mean ± SD n = 4; read-out: Cytotoxicity (as of %control) IC50 value, MDA-MB-453 invasive mammary malignancy
Method: as §1

[3] = test system: MDA-MB-231 invasive mammary malignancy; assay: SRB antiproliferative assay; format: cell-based, human; details: read-out: Cytotoxicity (as of %control) IC50 value, MDA-MB-231 invasive mammary malignancy; 72 h incubations; 3.125-200 µM range; mean ± SD n = 4
Method: as §1

[4] = test system: SW480 colorectal cancer cell line; assay: SRB antiproliferative assay; format: cell-based, human; details: 72 h incubations; 3.125-200µM range; mean ± SD n = 4; read-out: Cytotoxicity (as of %control) IC50 value, SW480
Method: as §1

MCF7 mammary malignancy = assay: SRB antiproliferative assay; format: cell-based, human; details: 72 h incubations; 3.125-200µM range; mean ± SD n = 4; read-out: Cytotoxicity (as of %control) IC50 value, MCF7 mammary malignancy
Method: as §1

A549 lung malignancy = assay: SRB antiproliferative assay; format: cell-based, human; details: 72 h incubations; 3.125-200µM range; mean ± SD n = 4; read-out: Cytotoxicity (as of %Control) IC50 value, A549 lung malignancy
Method: as §1

Hela cervix malignancy = assay: SRB antiproliferative assay; format: cell-based, human; details: 72 h incubations; 3.125-200µM range; mean ± SD n = 4; read-out: Cytotoxicity (as of %Control) IC50 value, Hela cervix malignancy
Method: as §1

[5] = test system: PANC1 pancreatic cell line; assay: SRB antiproliferative assay; format: cell-based, human; details: 72 h incubations; 3.125-200µM range; mean ± SD n = 4; read-out: Cytotoxicity (as of %control) IC50 value, PANC1
Method: as §1

PC3 prostate malignancy = assay: SRB antiproliferative assay; format: cell-based, human; details: 72 h incubations; 3.125-200µM range; mean ± SD n = 4; read-out: Cytotoxicity (as of %Control) IC50 value, PC3 prostate malignancy
Method: as §1

T47D mammary malignancy = assay: SRB antiproliferative assay; format: cell-based, human; details: 72 h incubations; 3.125-200µM range; mean ± SD n = 4; read-out: Cytotoxicity (as of %control) IC50 value, T47D mammary malignancy
Method: as §1

[6] = test system: BT-549 invasive mammary malignancy; assay: SRB antiproliferative assay; format: cell-based, human; details: 72 h incubations; 3.125-200µM range; mean ± SD n = 4; read-out: Cytotoxicity (as of %control) IC50 value, BT-549 invasive mammary malignancy
Method: as §1

[7] = test system: Periodontal ligament fibroblasts (PDL); assay: SRB selective cytotoxicity in normal fibroblasts; format: cell-based; details: SRB; normal PDL fibroblasts; unit printed for cisplatin cell and footnote
Method: as §1

**Q.** How did the IC50 (RAW 264.7 macrophages) turn out when `COc1ccc2c(c1)c(CC(=O)O)c(C)n2C(=O)c1ccc(Cl)cc1` [Indomethacin, reference compound] was run?
**A.** Its IC50 is over 200 µM.

**Q.** How did the MIC [1] turn out when `OC(Cn1cncn1)(Cn1cncn1)c1ccc(F)cc1F` [Fluconazole, reference compound] was run?
**A.** The MIC was 3.9 µg/mL (≈ 12.7 µM).

**Q.** How did the IC50 [2] turn out when `N.N.[Cl][Pt][Cl]` [Cisplatin, reference compound] was run?
**A.** The IC50 was 9.8 ± 0.1 µM.

**Q.** What about the IC50 [3] of the same compound?
**A.** Its IC50 is 11.8 ± 1.4 µM.

**Q.** What about the IC50 [4] of the same compound?
**A.** Its IC50 is 8.92 ± 0.24 µM.

**Q.** What about the IC50 (MCF7 mammary malignancy) of the same compound?
**A.** The IC50 was 31.6 ± 0.44 µM.

**Q.** And the IC50 (A549 lung malignancy)?
**A.** The IC50 was 71.9 ± 2.9 µM.

**Q.** And the IC50 (Hela cervix malignancy)?
**A.** Its IC50 is 27.3 ± 0.9 µM.

**Q.** And the IC50 [5]?
**A.** Its IC50 is 41.5 ± 0.4 µM.

**Q.** What about the IC50 (PC3 prostate malignancy) of the same compound?
**A.** Its IC50 is 12.5 ± 0.2 µM.

**Q.** And the IC50 (T47D mammary malignancy)?
**A.** Its IC50 is 34.2 ± 0.5 µM.

**Q.** What about the IC50 [6] of the same compound?
**A.** Its IC50 is 3.77 ± 0.25 µM.

**Q.** And the IC50 [7]?
**A.** Its IC50 is 5.6 µM.
